What was measured:
MIA PaCa-2 [1] = experiment: Antitumor activity against human MIAPaCa2 cells xenografted in SCID mouse assessed as tumor weight at 70 mg/kg, ip twice a week (reference value: 1225 +/- 308 mg); assay type: functional; conditions: route intraperitoneal
MIA PaCa-2 [2] = experiment: Growth inhibition of human MIAPaCa2 cells after 48 hrs by SRB assay; assay type: functional; conditions: MIA PaCa-2, 48 h; for CC50: read-out: LC50 (the source's name)
BXPC-3 [3] = experiment: Growth inhibition of human BxPC3 cells after 48 hrs by SRB assay; assay type: functional; conditions: BXPC-3, 48 h
MIA PaCa-2 [4] = experiment: Antitumor activity against human MIAPaCa2 cells xenografted in SCID mouse assessed as reduction in tumor volume at 70 mg/kg, ip twice a week; conditions: MIA PaCa-2, ip, read-out: INH
U-251 = experiment: Growth inhibition of human U251 cells after 48 hrs by SRB assay; assay type: functional; conditions: U-251, 48 h
SF-295 = experiment: Growth inhibition of human SF295 cells after 48 hrs by SRB assay; assay type: functional; conditions: SF-295, 48 h
DU-145 = experiment: Growth inhibition of human DU145 cells after 48 hrs by SRB assay; assay type: functional; conditions: DU-145, 48 h
HCT-116 = experiment: Growth inhibition of human HCT116 cells after 48 hrs by SRB assay; assay type: functional; conditions: HCT-116, 48 h
NCI-H460 = experiment: Growth inhibition of human NCI-H460 cells after 48 hrs by SRB assay; assay type: functional; conditions: NCI-H460, 48 h
HL-60(TB) = experiment: Growth inhibition of human HL-60(TB) cells after 48 hrs by SRB assay; assay type: functional; conditions: HL-60, 48 h
PC-3 = experiment: Growth inhibition of human PC3 cells after 48 hrs by SRB assay; assay type: functional; conditions: PC-3, 48 h
SK-HEP1 = experiment: Growth inhibition of human SKHEP1 cells after 48 hrs by SRB assay; assay type: functional; conditions: SK-HEP1, 48 h
MCF7 = experiment: Growth inhibition of human MCF7 cells after 48 hrs by SRB assay; assay type: functional; conditions: MCF7, 48 h
BXPC-3 [5] = experiment: Antitumor activity against human BxPC3 cells xenografted in SCID mouse assessed as tumor weight at 17 mg/kg, ip twice a week (reference value: 723 +/- 45 mg); assay type: functional; conditions: route intraperitoneal
[6] = Growth inhibition of human MSC cells after 48 hrs by SRB assay; assay type: cell-based
BXPC-3 [7] = experiment: Antitumor activity against human BxPC3 cells xenografted in SCID mouse assessed as reduction in tumor volume at 17 mg/kg, ip twice a week; assay type: functional; conditions: BXPC-3, ip, route intraperitoneal
H69AR = experiment: Growth inhibition of human H69AR cells after 48 hrs by SRB assay; assay type: functional
IGROV-1 = experiment: Growth inhibition of human IGROV1 cells after 48 hrs by SRB assay; assay type: functional; conditions: IGROV-1, 48 h
HCT-15 = experiment: Growth inhibition of human HCT15 cells after 48 hrs by SRB assay; assay type: functional; conditions: HCT-15, 48 h
NCI-H69 = experiment: Growth inhibition of human NCI-H69 cells after 48 hrs by SRB assay; assay type: functional; conditions: NCI-H69, 48 h
OVCAR-5 = experiment: Growth inhibition of human OVCAR5 cells after 48 hrs by SRB assay; assay type: functional; conditions: OVCAR-5, 48 h
DMS-114 = experiment: Growth inhibition of human DMS114 cells after 48 hrs by SRB assay; assay type: functional; conditions: DMS-114, 48 h
HUVEC = experiment: (§1) Growth inhibition of HUVEC cells after 48 hrs by SRB assay; assay type: cell-based; conditions: human, huvec, 48 h
[8] = as §1; assay type: cell-based; conditions: human, HUVEC cells
[9] = read-out: LC50 (the source's name)

Nc1ccn([C@@H]2O[C@H](CO)[C@@H](O)C2(F)F)c(=O)n1 [GEMCITABINE]
Activity (MIA PaCa-2 [1]): 537 mg | GI50 (MIA PaCa-2 [2]): 35.8 µM | TGI (MIA PaCa-2 [2]): 100 µM | CC50 (MIA PaCa-2 [2]): 100 µM | GI50 (BXPC-3 [3]): 3.64 µM | TGI (BXPC-3 [3]): 9.05 µM | inhibition in vivo at 70 mg/kg (MIA PaCa-2 [4]): 56.2%

O=c1[nH]cc(F)c(=O)[nH]1 [FLUOROURACIL]
GI50 (U-251): 82 µM | TGI (U-251): 100 µM | CC50 (U-251; [9]): 100 µM | GI50 (SF-295): 76 µM | TGI (SF-295): 100 µM | CC50 (SF-295; [9]): 100 µM | GI50 (DU-145): 9.37 µM | TGI (DU-145): 100 µM | CC50 (DU-145; [9]): 100 µM | GI50 (HCT-116): 9.9 µM | TGI (HCT-116): 100 µM | CC50 (HCT-116; [9]): 100 µM | GI50 (NCI-H460): 6.5 µM | TGI (NCI-H460): 100 µM | GI50 (HL-60(TB)): 100 µM | TGI (HL-60(TB)): 100 µM | GI50 (PC-3): 21 µM | TGI (PC-3): 100 µM | CC50 (PC-3; [9]): 100 µM | GI50 (SK-HEP1): 6.3 µM | TGI (SK-HEP1): 100 µM | CC50 (SK-HEP1; [9]): 100 µM | GI50 (MCF7): 9.9 µM | TGI (MCF7): 100 µM | CC50 (MCF7; [9]): 100 µM | Activity (BXPC-3 [5]): 700% | GI50 at 48 h ([6]; MSC cells): 8.92 µM | LC50 ([6]; msc, 48 h): 100 µM | TGI ([6]; msc, 48 h): 86.06 µM | inhibition in vivo at 17 mg/kg (BXPC-3 [7]): 3.25% | GI50 (H69AR): 100 µM | TGI (H69AR): 100 µM | CC50 (H69AR; [9]): 100 µM | GI50 (MIA PaCa-2 [2]): 30 µM | TGI (MIA PaCa-2 [2]): 100 µM | CC50 (MIA PaCa-2 [2]): 100 µM | GI50 (BXPC-3 [3]): 8.2 µM | TGI (BXPC-3 [3]): 100 µM | GI50 (IGROV-1): 9.1 µM | TGI (IGROV-1): 100 µM | CC50 (IGROV-1; [9]): 100 µM | GI50 (HCT-15): 21 µM | TGI (HCT-15): 100 µM | GI50 (NCI-H69): 100 µM | TGI (NCI-H69): 100 µM | CC50 (NCI-H69; [9]): 100 µM | GI50 (OVCAR-5): 20 µM | TGI (OVCAR-5): 100 µM | CC50 (OVCAR-5; [9]): 100 µM | GI50 (DMS-114): 100 µM | TGI (DMS-114): 100 µM | CC50 (DMS-114; [9]): 100 µM | LC50 (HUVEC): 100 µM | TGI (HUVEC): 100 µM | GI50 at 48 h [8]: 9.72 µM
